In patent EP0090510A2, “O-carbamoyl salicylates and their preparation” (Council of Scientific and Industrial Research, priority 1983, dated 1983):

Assays:
Format in all cases: in vivo
Settings in all cases: Dose : 200 mg/kg
[1] = Anti-inflammatory, granuloma test
[2] = Anti-inflammatory, edema test
[3] = Analgesic protection, writhing test; parameters: unit not given here

NC(=O)Oc1ccccc1C(=O)Oc1ccccc1 [compound 4]
Anti-inflammatory %Inhibition Granuloma [1]: 57.65% | Anti-inflammatory %Inhibition Raw edema [2]: 93.19% | Analgesic protection Writhing [3]: 72.00

NC(=O)Oc1ccccc1C(=O)Oc1ccccc1Cl [compound 5]
Anti-inflammatory %Inhibition Granuloma [1]: 35.06% | Anti-inflammatory %Inhibition Raw edema [2]: 35.00% | Analgesic protection Writhing [3]: 70.00

O-Carbamoyl phenylsalicylate [Sl. No. 4]
Anti-inflammatory %Inhibition Granuloma [1]: 28.63% | Anti-inflammatory %Inhibition Raw edema [2]: 34.86% | Analgesic protection Writhing [3]: 95.00

O-Carbamoyl (3-pentadecylphenyl) salicylate [Sl. No. 10]
Anti-inflammatory %Inhibition Granuloma [1]: 19.79% | Anti-inflammatory %Inhibition Raw edema [2]: 34.85% | Analgesic protection Writhing [3]: 67.00

O-Carbamoyl ethylsalicylate [Sl. No. 2]
Anti-inflammatory %Inhibition Granuloma [1]: 46.32% | Anti-inflammatory %Inhibition Raw edema [2]: 76.23% | Analgesic protection Writhing [3]: 69.78

Cc1cc(OC(=O)c2ccccc2OC(N)=O)ccc1Cl [compound 9]
Anti-inflammatory %Inhibition Granuloma [1]: 24.04% | Anti-inflammatory %Inhibition Raw edema [2]: 28.90% | Analgesic protection Writhing [3]: 68.00

NC(=O)Oc1ccccc1C(=O)Oc1ccc(Cl)cc1 [compound 6]
Anti-inflammatory %Inhibition Granuloma [1]: 41.45% | Anti-inflammatory %Inhibition Raw edema [2]: 37.88% | Analgesic protection Writhing [3]: 83.00

CCCCCCCCCCCCCCCc1cccc(OC(=O)c2ccccc2OC(N)=O)c1 [compound 10]
Anti-inflammatory %Inhibition Granuloma [1]: 33.55% | Anti-inflammatory %Inhibition Raw edema [2]: 12.10% | Analgesic protection Writhing [3]: 45.00

NC(=O)Oc1ccccc1C(=O)Oc1ccc(Cl)cc1Cl [compound 7]
Anti-inflammatory %Inhibition Granuloma [1]: 34.40% | Anti-inflammatory %Inhibition Raw edema [2]: 28.77% | Analgesic protection Writhing [3]: 76.00

Cc1cccc(OC(=O)c2ccccc2OC(N)=O)c1 [compound 8]
Anti-inflammatory %Inhibition Granuloma [1]: 33.25% | Anti-inflammatory %Inhibition Raw edema [2]: 48.50% | Analgesic protection Writhing [3]: 84.00
